Measurements reported in patent US20160122821A1, “GENETIC MARKERS OF ANTIPSYCHOTIC RESPONSE” (SUREGENE, LLC, priority 2013, published 2016).

Test system: Caucasian patients with schizophrenia (CATIE)
Test: Genetic association (linear regression, additive model) of SNP alleles with MMRM-modelled change in PANSS Total Score under antipsychotic treatment, CATIE trial
Assay type: in vivo, human
Experimental: For the CATIE study, individual cases were diagnosed as having SZ based on DSM-III/IV criteria. Treatment response for all patients was assessed using the Positive and Negative Syndrome Scale (PANSS) (Kay et al., 1987; Kay et al., 1989; Leucht et al., 2005). […] To avoid possible bias in post hoc selection of a treatment response variable, the inventors used the mixed model repeated measures (MMRM) approach developed by van den Oord and coworkers (van den Oord et al., 2009). […] The design of the CATIE study, including details of consent for genetic analyses, has been described in detail by others (Lieberman et al., 2005; Stroup et al., 2003; Sullivan et al., 2008). Only retrospective genetic analyses, judged to be exempt from human studies requirements by an IRB, were conducted in the current study. Consented DNA samples were obtained from the Rutgers University Cell and DNA Repository in collaboration with […]. […] All of these patients self-reported as having exclusively European ancestry. […] Genotyping was performed on a fee for service basis according to Illumina's standard operating procedures. Raw intensity files were processed using Illumina® BeadStudio version 1.7.4 software. […] Only two of these had been previously genotyped in the CATIE sample. […] To allow comparison to previously published PGx findings for CATIE and to avoid possible bias in post-hoc selection of a treatment response variable, the inventors used the mixed model repeated measures (MMRM) approach developed by Van den Oord and coworkers (van den Oord et al., 2009; […] et al., 2011). Briefly, this method models random effects by introducing random slopes for treatment effects, allowing treatment effects to be different across subjects. The MMRM approach serves to increase the statistical power to detect genetic associations by increasing the precision in measuring change in PANSS Total Score (PANSS-T) by accounting for variance due to baseline PANSS-T, and treatment, as well as smoothing out the random fluctuations in PANSS-T between visits due to various uncontrolled variables. […] Bozeman, Mont.). Quantile-Quantile (QQ) plots were prepared using the R statistical package version 2.14.1. For comparison purposes, original CATIE-provided SNP genotypes in specific genes were evaluated using the same genetic analysis. Haplotype association integrating newly generated and original genotypes for specific regions was carried out in SVS using haplotype blocks predefined by Haploview software. […] For each of the SNPs listed the reference SNP (rs) number is provided, which provides the known sequence context for the given SNP (see, e.g., National Center for Biotechnology Information (NCBI) SNP database available on the world wide web at ncbi.nlm.nih.gov/snp).

SMILES: Cc1cc2c(s1)Nc1ccccc1N=C2N1CCN(C)CC1 [Olanzapine, olanzapine]
- Beta (PANSS) (ADAMTS9-AS2 rs17071651 allele C): −3.03 PANSS
- Beta (PANSS) (AGAP1 rs4663220 allele T): −3.07 PANSS
- Beta (PANSS) (ANK3 rs2893823 allele A): −4.47 PANSS
- Beta (PANSS) (ANK3 rs10821660 allele G): −4.45 PANSS
- Beta (PANSS) (APCDD1 rs1045584 allele G): −3.41 PANSS
- Beta (PANSS) (ARHGAP31 rs751607 allele A): −4.30 PANSS
- Beta (PANSS) (ARVCF rs2238794 allele C): −3.11 PANSS
- Beta (PANSS) (ATP10A rs2291351 allele A): −4.99 PANSS
- Beta (PANSS) (BIK rs5996274 allele A): −4.94 PANSS
- Beta (PANSS) (CA10 rs741682 allele A): −5.58 PANSS
- Beta (PANSS) (CACNA1B rs12352971 allele G): −4.21 PANSS
- Beta (PANSS) (CACNG4 rs7219571 allele A): −5.84 PANSS
- Beta (PANSS) (CAMK2D rs13113625 allele C): −3.68 PANSS
- Beta (PANSS) (CDH13 rs3743621 allele C): −5.54 PANSS
- Beta (PANSS) (CLIC5 rs35822882 allele G): −14.90 PANSS
- Beta (PANSS) (CNTN4 rs1554561 allele T): −4.50 PANSS
- Beta (PANSS) (CNTN4 rs4685501 allele T): −4.63 PANSS
- Beta (PANSS) (CPNE5 rs12194367 allele T): −3.14 PANSS
- Beta (PANSS) (CSMD1 rs2724972 allele G): −4.69 PANSS
- Beta (PANSS) (CSMD1 rs7815861 allele C): −5.06 PANSS
- Beta (PANSS) (DLGAP1 rs498419 allele A): −3.07 PANSS
- Beta (PANSS) (DLGAP1 rs561434 allele A): −4.43 PANSS
- Beta (PANSS) (EHD4 rs1048166 allele C): −3.04 PANSS
- Beta (PANSS) (EHD4 rs1048175 allele C): −3.04 PANSS
- Beta (PANSS) (EML1 rs34198557 allele C): −4.01 PANSS
- Beta (PANSS) (ERBB4 rs7565257 allele A): −3.44 PANSS
- Beta (PANSS) (ERG rs9981408 allele G): −3.15 PANSS
- Beta (PANSS) (EXOC2 rs9405889 allele C): −3.21 PANSS
- Beta (PANSS) (FAM170A rs2162856 allele A): −3.06 PANSS
- Beta (PANSS) (FAM173B rs12652786 allele C): −3.39 PANSS
- Beta (PANSS) (FBN3 rs2287937 allele C): −5.34 PANSS
- Beta (PANSS) (FGF14 rs2390674 allele A): −4.22 PANSS
- Beta (PANSS) (FHIT rs971866 allele A): −5.07 PANSS
- Beta (PANSS) (FMNL2 rs4664113 allele C): −4.25 PANSS
- Beta (PANSS) (FSTL5 rs13127909 allele C): −4.60 PANSS
- Beta (PANSS) (GAN rs1345895 allele A): −3.53 PANSS
- Beta (PANSS) (GAS7 rs9904524 allele G): −4.96 PANSS
- Beta (PANSS) (GPC6 rs9301876 allele A): −4.68 PANSS
- Beta (PANSS) (GRM8 rs17865066 allele A): −7.97 PANSS
- Beta (PANSS) (GRM8 rs17865434 allele C): −7.97 PANSS
- Beta (PANSS) (HTR1B rs11568817 allele G): −3.16 PANSS
- Beta (PANSS) (IFT74 rs4463511 allele C): −3.77 PANSS
- Beta (PANSS) (IL1RAP rs2361835 allele A): −3.93 PANSS
- Beta (PANSS) (IL1RAP rs7642607 allele A): −3.93 PANSS
- Beta (PANSS) (IL1RAP rs7642797 allele A): −3.93 PANSS
- Beta (PANSS) (IL15 rs3806798 allele A): −4.33 PANSS
- Beta (PANSS) (ITPR1 rs11717244 allele C): −3.53 PANSS
- Beta (PANSS) (JPH2 rs2064381 allele A): −3.06 PANSS
- Beta (PANSS) (KAZN rs12130605 allele C): −3.66 PANSS
- Beta (PANSS) (KCND2 rs718805 allele A): −5.26 PANSS
- Beta (PANSS) (KCND2 rs10953911 allele G): −5.26 PANSS
- Beta (PANSS) (KCND2 rs11765060 allele C): −5.30 PANSS
- Beta (PANSS) (KCNH1 rs4282878 allele C): −3.08 PANSS
- Beta (PANSS) (KDM4C rs35389625 allele C): −11.20 PANSS
- Beta (PANSS) (KITLG rs995029 allele C): −7.22 PANSS
- Beta (PANSS) (LDB2 rs872478 allele C): −3.53 PANSS
- Beta (PANSS) (LRP1B rs4591293 allele A): −3.04 PANSS
- Beta (PANSS) (MACROD2 rs461651 allele A): −3.59 PANSS
- Beta (PANSS) (MACROD2 rs6079429 allele A): −4.72 PANSS
- Beta (PANSS) (MAGI2 rs848813 allele C): −4.34 PANSS
- Beta (PANSS) (MAGI2 rs12705833 allele G): −2.87 PANSS
- Beta (PANSS) (MCPH1 rs930557 allele C): −3.78 PANSS
- Beta (PANSS) (MEPE rs3749575 allele A): −8.95 PANSS
- Beta (PANSS) (MTIF3 rs12585587 allele A): −4.37 PANSS
- Beta (PANSS) (NAB1 rs2293765 allele A): −4.60 PANSS
- Beta (PANSS) (NELL1 rs4244549 allele C): −4.96 PANSS
- Beta (PANSS) (NRXN1 rs11885824 allele A): −5.21 PANSS
- Beta (PANSS) (NTRK2 rs1490403 allele A): −3.10 PANSS
- Beta (PANSS) (NTRK2 rs1490407 allele G): −3.00 PANSS
- Beta (PANSS) (NTRK2 rs4142909 allele C): −3.81 PANSS
- Beta (PANSS) (NTSR2 rs7602721 allele C): −4.08 PANSS
- Beta (PANSS) (PARD3B rs17283257 allele A): −3.82 PANSS
- Beta (PANSS) (PCDH15 rs10825137 allele A): −4.89 PANSS
- Beta (PANSS) (PCDH17 rs7319102 allele A): −3.47 PANSS
- Beta (PANSS) (PCP4L1 rs6671288 allele C): −4.15 PANSS
- Beta (PANSS) (PDGFD, DDI1 rs2279789 allele C): −4.42 PANSS
- Beta (PANSS) (PEBP4 rs13271643 allele C): −5.41 PANSS
- Beta (PANSS) (PI4KA, SERPIND1 rs78656 allele C): −7.22 PANSS
- Beta (PANSS) (PKNOX2 rs1044314 allele G): −4.14 PANSS
- Beta (PANSS) (PKP4 rs11680160 allele A): −4.33 PANSS
- Beta (PANSS) (PRDM2 rs6429793 allele A): −3.13 PANSS
- Beta (PANSS) (PSD3 rs7016207 allele C): −6.20 PANSS
- Beta (PANSS) (PTPRT rs6030084 allele A): −2.96 PANSS
- Beta (PANSS) (RASGEF1C rs2278661 allele C): −3.04 PANSS
- Beta (PANSS) (RBFOX1 rs7194775 allele C): −4.37 PANSS
- Beta (PANSS) (RIMS1 rs9446639 allele C): −3.56 PANSS
- Beta (PANSS) (RNF144A rs7605141 allele C): −4.00 PANSS
- Beta (PANSS) (ROBO2 rs4343667 allele C): −4.96 PANSS
- Beta (PANSS) (RORA rs12910376 allele C): −3.38 PANSS
- Beta (PANSS) (SCN3A rs10048748 allele C): −5.44 PANSS
- Beta (PANSS) (SEC16B rs16852158 allele C): −6.45 PANSS
- Beta (PANSS) (SGCZ rs10503525 allele C): −3.05 PANSS
- Beta (PANSS) (SGCZ rs13278000 allele A): −2.91 PANSS
- Beta (PANSS) (SLC6A5 rs1443547 allele A): −3.31 PANSS
- Beta (PANSS) (SLC16A4 rs12126959 allele A): −4.16 PANSS
- Beta (PANSS) (SLC16A9 rs16913940 allele A): −6.05 PANSS
- Beta (PANSS) (SLC35F3 rs12759054 allele C): −3.34 PANSS
- Beta (PANSS) (SPOCK1 rs1051854 allele G): −6.02 PANSS
- Beta (PANSS) (WDR90 rs1057835 allele A): −3.10 PANSS
- Beta (PANSS) (ZNF169 rs9409514 allele C): −3.04 PANSS
